Row | Compound | melting point
1 | O=C(CC(C(=O)O)c1c[nH]c2cccc(Cl)c12)c1ccc(F)cc1F (centres unmarked) [Compound (2-1), 2-(4-chloro-1H-indol-3-yl)-4-(2,4-difluorophenyl)-4-oxo-butanoic Acid] | 203 to 204 °C
2 | O=C(CC(C(=O)O)c1c[nH]c2ccc(F)cc12)c1ccc(F)cc1F (centres unmarked) [Compound (3-1), 4-(2,4-difluorophenyl)-2-(5-fluoro-1H-indol-3-yl)-4-oxo-butanoic Acid] | 207 to 208 °C
3 | O=C(CC(C(=O)O)c1c[nH]c2ccc(Cl)cc12)c1ccc(F)cc1F (centres unmarked) [Compound (3-2), 2-(5-chloro-1H-indol-3-yl)-4-(2,4-difluorophenyl)-4-oxo-butanoic Acid] | 236 to 239 °C
4 | Cc1ccc2[nH]cc(C(CC(=O)c3ccc(F)cc3F)C(=O)O)c2c1 (centres unmarked) [Compound (3-3), 4-(2,4-difluorophenyl)-2-(5-methyl-1H-indol-3-yl)-4-oxo-butanoic Acid] | 200 to 202 °C
5 | COc1ccc2[nH]cc(C(CC(=O)c3ccc(F)cc3F)C(=O)O)c2c1 (centres unmarked) [Compound (3-4), 4-(2,4-difluorophenyl)-2-(5-methoxy-1H-indol-3-yl)-4-oxo-butanoic Acid] | 205 to 206 °C
6 | O=C(CC(C(=O)O)c1c[nH]c2cc(F)ccc12)c1ccc(F)cc1F (centres unmarked) [Compound (4-1), 4-(2,4-difluorophenyl)-2-(6-fluoro-1H-indol-3-yl)-4-oxo-butanoic Acid] | 210 to 214 °C
7 | CCCCOc1ccc2cccc(CC(=O)O)c2c1 [compound #33, α-(7-Butoxy-1-naphthalenyl)-acetic Acid] | 102 to 104 °C
8 | CCCCCOc1ccc2cccc(CC(=O)O)c2c1 [compound #34, α-(7-Pentoxy-1-naphthalenyl)-acetic Acid] | 104 to 106 °C
9 | CCCCOc1ccc2[nH]cc(CC(=O)O)c2c1 [compound #39, 5-(1-Butoxy)-3-indoleacetic Acid] | 137.8 to 141.1 °C

Next, values leading:

Row | melting point | Compound
10 | 177 to 178 °C | O=C(CC(C(=O)O)c1c[nH]c2cc(OCc3ccccc3)ccc12)c1ccc(F)cc1F (centres unmarked) [Compound (4-2), 2-(6-benzyloxy-1H-indol-3-yl)-4-(2,4-difluorophenyl)-4-oxo-butanoic Acid]
11 | 225 to 227 °C | O=C(CC(C(=O)O)c1c[nH]c2c(Cl)cccc12)c1ccc(F)cc1F (centres unmarked) [Compound (5-1), 2-(7-chloro-1H-indol-3-yl)-4-(2,4-difluorophenyl)-4-oxo-butanoic Acid]
12 | 181 to 183 °C | COc1cccc2c(C(CC(=O)c3ccc(F)cc3F)C(=O)O)c[nH]c12 (centres unmarked) [Compound (5-2), 4-(2,4-difluorophenyl)-2-(7-methoxy-1H-indol-3-yl)-4-oxo-butanoic Acid]
13 | 192 to 193 °C | Cn1cc(C(CC(=O)c2ccc(F)cc2F)C(=O)O)c2ccccc21 (centres unmarked) [Compound (6-1), 4-(2,4-difluorophenyl)-2-(1-methyl-1H-indol-3-yl)-4-oxo-butanoic Acid]
14 | 139 to 141 °C | CCCn1cc(C(CC(=O)c2ccc(C)cc2C)C(=O)O)c2ccccc21 (centres unmarked) [compound 6, 4-(2,4-Dimethylphenyl)-2-(1-propyl-1H-indol-3-yl)-4-oxo-butanoic Acid]
15 | 149 to 150 °C | O=C(CC(C(=O)O)c1c[nH]c2ccccc12)c1ccccc1 (centres unmarked) [compound #20, 4-Phenyl-2-(1H-indol-3-yl)-4-oxo-butanoic Acid]
16 | 86 to 92.7 °C | CCOc1ccc2[nH]cc(CC(=O)O)c2c1 [compound #37, 5-Ethoxy-3-indoleacetic Acid]
17 | 133.6 to 136.8 °C | CCCOc1ccc2[nH]cc(CC(=O)O)c2c1 [compound #38, 5-(1-Propoxy)-3-indoleacetic Acid]

Reference: patent US11147796B2, “Agent for preventing or ameliorating hearing impairment” (Tohoku University, priority 2017, dated 2021)
